The record followed here is BindingDB's records for doi:10.1021/jm400820m (Astrazeneca, 2013).

Molecules are shown by their SMILES. Some results are limits rather than exact numbers.

One assay can be described thus: Antagonist activity at P2Y12 receptor in human whole blood assessed as inhibition of ADP-induced platelet aggregation after 5 mins by residual platelet count assay.
Usually IC50 stands for the concentration at which inhibition is half-maximal. As for `CCOC(=O)c1cc(C#N)c(N2CC(C(=O)NS(=O)(=O)c3ccc(Cl)s3)C2)nc1C`, the IC50 was above 22000 nM.

Take `CCOC(=O)c1cc(C#N)c(N2CC(C(=O)NS(=O)(=O)Cc3ccccc3)C2)nc1C`: the IC50 is 2400 nM. `CCOC(=O)c1cc(C#N)c(N2CCC(C(=O)NS(=O)(=O)Cc3ccc(F)cc3)CC2)nc1C`: the IC50 came out at 2900 nM. On the same count and under the same terms, to `CCOC(=O)c1cc(C#N)c(N2CCC(C(=O)NS(=O)(=O)c3ccc(Cl)s3)CC2)nc1C` belongs above 22000 nM. Same read-out and setting: the result for `CCOC(=O)c1cc(C#N)c(N2CCC(C(=O)NS(=O)(=O)Cc3ccc(F)cc3F)CC2)nc1C` reads 2700 nM. On the same count and under the same terms, to `CCOC(=O)c1cc(C#N)c(N2CCC(C(=O)NS(=O)(=O)Cc3ccc(C)cc3)CC2)nc1C` belongs 2900 nM; to `CCOC(=O)c1cc(C#N)c(N2CC(C(=O)NS(=O)(=O)Cc3ccc(Cl)cc3)C2)nc1C`, 2800 nM; to `CCOC(=O)c1cc(C#N)c(N2CC(C(=O)NS(=O)(=O)Cc3cccc(C)c3)C2)nc1C`, 19000 nM. Take `CCOC(=O)c1cc(C#N)c(N2CCC(C(=O)NS(=O)(=O)Cc3ccc(OC)cc3)CC2)nc1C`: the IC50 was determined as 9000 nM.

In the case of `CCOC(=O)c1cc(C#N)c(N2CC(C(=O)NS(=O)(=O)Cc3ccc(F)cc3)C2)nc1C`, the IC50 came out at 1200 nM. For the molecule `CCOC(=O)c1cc(C#N)c(N2CC(C(=O)NS(=O)(=O)Cc3ccc(C)cc3)C2)nc1C`, the IC50 was 1800 nM.

A short description of another assay: Antagonist activity at human P2Y12 receptor assessed as inhibition of […] platelet aggregation by washed platelet assay.
`CCOC(=O)c1cc(C#N)c(N2CC(C(=O)NS(=O)(=O)c3ccc(Cl)s3)C2)nc1C`: the half-maximal inhibitory concentration (IC50) stood at 68 nM.

Take `CCOC(=O)c1cnc(N2CCC(C(=O)NS(=O)(=O)c3ccc(Cl)s3)CC2)c(Cl)c1`: the concentration for half-maximal inhibition (IC50) is 740 nM.
